Test system: neurons of primary cortical cultures
Experiment: Neuronal viability (MTT) in non-stimulated cultures
Type: cell-based, rat
Method: Cultures were prepared from cerebral cortex of 18-day-old Wistar rat embryos, both genders indistinctly included. Unless otherwise indicated, glial growth was inhibited after 7 days in vitro (DIVs), experimental treatments taking place after 12 DIVs. These cultures present a high percentage of neurons, combined with glial cells, mostly astrocytes. To induce excitotoxicity, cultures were incubated with NMDA (100 µM) and its co-agonist glycine (10 µM), herein denoted simply as NMDA, which induce a strong excitotoxic response in mature neurons but have no effect on astrocyte viability,[47]. When indicated, cultures were preincubated for 30 min with indicated concentrations of Tat-derived CPPs before NMDA treatment, peptides being kept in the medium along treatment. Total cell or neuronal viability assessment was established by the thiazolyl blue formazan (MTT) reduction assay. Further details are provided as Supplementary material. […]
skull for 10 min. Br ain injury encompas se s damage to vas cular endothelium, platelet activation, and subs equent microvascula r thrombotic occlus ion of the irradiate d region. The ar eas underneath this ste reotaxic position that result irradiate d ar e the prima ry motor cortex and the prima ry soma tos ens ory cortex (hindlimb and forelimb). Once completed surgery, the incision was sutured, and mice were allowed to recover. […]

Ac-YGRKKRRQRRRPPFVLFHKIPLDG-NH2 [TT1Ct]
Intrinsic toxicity (concentrations lower than 25 µM): not intrinsically toxic
Toxicity for non-stimulated cultures (higher dose employed (25 µM)): toxic
